Assay results reported in patent US7414042B2, “Method and composition for selectively inhibiting melanoma” (The Board of Trustees of The University of Illinois, priority 1995, dated 2008).
Values after ≈ are worked out from the molar mass of the structure shown.

Key:
A431 (squamous cells) = assay: Cytotoxicity against cultured human cancer cells (SRB); type: cell-based; settings: Homo sapiens, A-431, 72 h; three days incubation, SRB; read-out: ED50 A431
Method: (§1) The plates were incubated for three days. […] Dose response studies were performed to generate ED50 values.

BC-1 (breast) = assay: as above; type: cell-based; settings: Homo sapiens, 72 h; three days incubation, SRB; read-out: ED50 BC-1
Method: as §1

COL-2 (colon) = assay: as above; type: cell-based; settings: Homo sapiens, Col2, 72 h; three days incubation, SRB; read-out: ED50 COL-2
Method: as §1

HT-1080 (sarcoma) = assay: as above; type: cell-based; settings: Homo sapiens, HT-1080, 72 h, three days incubation, read-out: ED50 HT-1080
Method: as §1

[1] = tested on: KB (human oral epidermoid carcinoma); assay: as above; type: cell-based
Method: as §1

LNCaP (prostate) = assay: as above; type: cell-based; settings: Homo sapiens, LNCaP, 72 h; three days incubation, SRB; read-out: ED50 LNCaP
Method: as §1

LU-1 (lung) = assay: as above; type: cell-based; settings: Homo sapiens, 72 h, three days incubation, read-out: ED50 LU-1
Method: as §1

U373 (glioma) = assay: as above; type: cell-based; settings: Homo sapiens, U373 MG, 72 h; three days incubation, SRB; read-out: ED50 U373
Method: as §1

ZR-75-1 (breast) = assay: as above; type: cell-based; settings: Homo sapiens, ZR-75-1, 72 h; three days incubation, SRB; read-out: ED50 ZR 75-1
Method: as §1

MEL-1 = assay: Dose-response study, additional human melanoma cell line; type: cell-based
Method: (§2) Moreover, the cytotoxic response mediated by betulinic acid is not exclusively limited to the MEL-2 melanoma cell line.
as §1

MEL-3 = assay: as above; type: cell-based
Method: as §2, §1

MEL-4 = assay: as above; type: cell-based
Method: as §2, §1

UISO MEL-1 cells = assay: In vivo activity against MEL-1 tumors in athymic mice; settings: 5, 50 or 250 mg/kg/dose IP betulinic acid/PVP every fourth day, six doses
Method: In particular, with respect to FIGS. 4 and 5, four week old athymic mice were injected subcutaneously in the right flank with 5.0×10^8 UISO MEL-1 cells. Drug treatment was initiated on the day following tumor cell injection and continued every fourth day for a total of six doses. Four control animals received 0.5 ml intraperitoneal (IP) saline, while treated animals (4 per group) received 5, 50 or 250 mg/kg/dose IP betulinic acid/PVP in dd H2O. The mice were weighed, and tumors were measured with a micrometer every third day throughout the study. Treated animals were sacrificed and autopsied on day 41, when the mean tumor volume in the control mice was approximately 0.5 cm^3. The control mice then received six doses of 50 mg/kg every fourth day beginning day 41 and were sacrificed and autopsied on day 71.

[2] = tested on: L1210 murine lymphocytic leukemia; settings: 200 mg/kg; cited from earlier work
P-388 murine lymphocyte = settings: tests conducted by the National Cancer Institute; cited from earlier work

SMILES: C=C(C)[C@@H]1CC[C@]2(C(=O)O)CC[C@]3(C)[C@H](CC[C@@H]4[C@@]5(C)CC[C@H](O)C(C)(C)[C@@H]5CC[C@]43C)[C@@H]12 [Compound 10, 3β-hydroxy-lup-20(29)-ene-28-oic acid]
- IC50 (A431 (squamous cells)): > 20 µg/mL
- IC50 (BC-1 (breast)): > 20 µg/mL
- IC50 (COL-2 (colon)): > 20 µg/mL
- IC50 (HT-1080 (sarcoma)): > 20 µg/mL
- IC50 ([1]; Homo sapiens, 72 h, three days incubation, SRB, Table 1, read-out: ED50 KB): > 20 µg/mL
- ED50 (Std. Dev.) KB ([1]; derivatives, Tables 2-6): >20 µg/mL
- IC50 (LNCaP (prostate)): > 20 µg/mL
- IC50 (LU-1 (lung)): > 20 µg/mL
- IC50 (U373 (glioma)): > 20 µg/mL
- IC50 (ZR-75-1 (breast)): > 20 µg/mL
- ED50 MEL-1 (MEL-1): 1.1 µg/mL (≈ 2.41 µM)
- ED50 MEL-3 (MEL-3): 3.3 µg/mL (≈ 7.23 µM)
- ED50 MEL-4 (MEL-4): 4.8 µg/mL (≈ 10.5 µM)
- activity against MEL-1 tumors (FIGS. 4 and 5) (UISO MEL-1 cells): showed activity against MEL-1 cells
- antitumor activity, L1210 [2]: inactive
- antitumor activity, P-388 (P-388 murine lymphocyte): activity was not supported
